From ChEMBL document CHEMBL4673338, “ROCK inhibitors 4: Structure-activity relationship studies of 7-azaindole-based rho kinase (ROCK) inhibitors” (Bioorg Med Chem Lett, 2021)

Legend:
Homo sapiens = organism: Homo sapiens; experiment: Selectivity index, ratio of Ki for PKA (unknown origin) to Ki for ROCK1 (unknown origin)
[1] = target: Rho-associated protein kinase 1 (Homo sapiens, UniProt Q13464); experiment: Inhibition of ROCK1 (unknown origin)
Cytochrome P450 3A4 = Cytochrome P450 3A4 (Homo sapiens, UniProt P08684); experiment: Inhibition of CYP3A4 (unknown origin); format: ADME
Cytochrome P450 3A4, sequence (P08684 whole entry): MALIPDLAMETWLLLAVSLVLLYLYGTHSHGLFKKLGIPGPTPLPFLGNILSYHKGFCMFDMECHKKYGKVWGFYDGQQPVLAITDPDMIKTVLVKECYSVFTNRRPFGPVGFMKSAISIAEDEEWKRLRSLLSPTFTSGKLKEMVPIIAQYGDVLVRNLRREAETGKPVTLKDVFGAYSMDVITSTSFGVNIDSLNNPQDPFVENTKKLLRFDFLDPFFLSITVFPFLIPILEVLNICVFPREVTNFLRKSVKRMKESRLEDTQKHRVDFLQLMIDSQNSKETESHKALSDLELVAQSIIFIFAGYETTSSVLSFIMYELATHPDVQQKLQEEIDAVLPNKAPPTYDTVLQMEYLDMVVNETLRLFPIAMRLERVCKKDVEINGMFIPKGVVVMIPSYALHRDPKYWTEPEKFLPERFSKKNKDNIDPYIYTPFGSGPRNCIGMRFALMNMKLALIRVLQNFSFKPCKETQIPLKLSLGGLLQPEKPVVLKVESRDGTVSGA

THP-1 = experiment: Antimigratory activity against human THP-1 cells; format: functional, cell-based
[2] = AUC(0 to infinity) in rat at 1 mg/kg, iv; format: ADME, organism-based; design: route intravenous, time infinity, dose 1 mg/kg; details: in vivo
[3] = Volume of distribution at steady state in rat at 1 mg/kg, iv; format: ADME, organism-based; details: in vivo, read-out: Vdss
[4] = Half life in rat at 1 mg/kg, iv; format: ADME, organism-based; details: in vivo
[5] = Clearance in rat at 1 mg/kg, iv; format: ADME, organism-based; details: in vivo
[6] = Intrinsic clearance in human Hepatocyte assessed per million cells; format: ADME, tissue-based; details: hepatocytes, read-out: CLH
[7] = target: Voltage-gated inwardly rectifying potassium channel KCNH2 (Homo sapiens, UniProt Q12809); experiment: Inhibition of human ERG
Voltage-gated inwardly rectifying potassium channel KCNH2, sequence (Q12809 whole entry): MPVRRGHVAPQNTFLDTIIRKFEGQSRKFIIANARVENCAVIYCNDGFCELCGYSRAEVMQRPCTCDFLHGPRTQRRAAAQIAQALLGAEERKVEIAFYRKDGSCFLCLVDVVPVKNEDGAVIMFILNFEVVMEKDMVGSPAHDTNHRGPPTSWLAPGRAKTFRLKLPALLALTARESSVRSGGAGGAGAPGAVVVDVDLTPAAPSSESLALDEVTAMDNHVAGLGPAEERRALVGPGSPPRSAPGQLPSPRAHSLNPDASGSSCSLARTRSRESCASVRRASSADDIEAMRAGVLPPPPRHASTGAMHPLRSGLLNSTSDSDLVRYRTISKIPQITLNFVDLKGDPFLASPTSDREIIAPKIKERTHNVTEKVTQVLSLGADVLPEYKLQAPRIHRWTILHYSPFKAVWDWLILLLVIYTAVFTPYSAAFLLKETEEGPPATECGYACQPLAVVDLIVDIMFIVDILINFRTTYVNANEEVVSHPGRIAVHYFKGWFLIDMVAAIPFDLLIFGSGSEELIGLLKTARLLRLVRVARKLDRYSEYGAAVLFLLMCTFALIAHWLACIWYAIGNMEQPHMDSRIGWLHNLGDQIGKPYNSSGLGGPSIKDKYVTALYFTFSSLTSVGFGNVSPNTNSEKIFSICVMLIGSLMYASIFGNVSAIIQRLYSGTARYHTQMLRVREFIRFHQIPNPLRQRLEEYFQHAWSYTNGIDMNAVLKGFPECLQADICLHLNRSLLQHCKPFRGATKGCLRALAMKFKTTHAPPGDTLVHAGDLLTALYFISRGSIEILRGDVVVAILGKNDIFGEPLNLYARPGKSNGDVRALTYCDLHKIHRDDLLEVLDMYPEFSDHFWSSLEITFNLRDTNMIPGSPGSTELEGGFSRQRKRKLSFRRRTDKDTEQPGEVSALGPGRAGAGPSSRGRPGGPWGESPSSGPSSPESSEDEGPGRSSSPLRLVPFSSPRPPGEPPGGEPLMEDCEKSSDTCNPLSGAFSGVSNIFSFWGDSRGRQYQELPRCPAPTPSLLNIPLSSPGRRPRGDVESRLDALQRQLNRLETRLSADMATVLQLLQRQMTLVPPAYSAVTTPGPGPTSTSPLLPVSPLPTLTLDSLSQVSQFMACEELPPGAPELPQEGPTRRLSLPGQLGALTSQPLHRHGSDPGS

[8] = Intrinsic clearance in rat Hepatocyte assessed per million cells; format: ADME, tissue-based; details: hepatocytes, read-out: CLH
[9] = AUC(0 to infinity) in rat at 3 mg/kg, po; format: ADME, organism-based; design: route oral, time infinity, dose 3 mg/kg; details: in vivo
[10] = Cmax in rat at 3 mg/kg, po; format: ADME, organism-based; design: route oral, dose 3 mg/kg; details: in vivo
[11] = Oral bioavailability in rat at 3 mg/kg; format: ADME, organism-based; details: in vivo

Rho-associated protein kinase 1, sequence (Q13464 whole entry): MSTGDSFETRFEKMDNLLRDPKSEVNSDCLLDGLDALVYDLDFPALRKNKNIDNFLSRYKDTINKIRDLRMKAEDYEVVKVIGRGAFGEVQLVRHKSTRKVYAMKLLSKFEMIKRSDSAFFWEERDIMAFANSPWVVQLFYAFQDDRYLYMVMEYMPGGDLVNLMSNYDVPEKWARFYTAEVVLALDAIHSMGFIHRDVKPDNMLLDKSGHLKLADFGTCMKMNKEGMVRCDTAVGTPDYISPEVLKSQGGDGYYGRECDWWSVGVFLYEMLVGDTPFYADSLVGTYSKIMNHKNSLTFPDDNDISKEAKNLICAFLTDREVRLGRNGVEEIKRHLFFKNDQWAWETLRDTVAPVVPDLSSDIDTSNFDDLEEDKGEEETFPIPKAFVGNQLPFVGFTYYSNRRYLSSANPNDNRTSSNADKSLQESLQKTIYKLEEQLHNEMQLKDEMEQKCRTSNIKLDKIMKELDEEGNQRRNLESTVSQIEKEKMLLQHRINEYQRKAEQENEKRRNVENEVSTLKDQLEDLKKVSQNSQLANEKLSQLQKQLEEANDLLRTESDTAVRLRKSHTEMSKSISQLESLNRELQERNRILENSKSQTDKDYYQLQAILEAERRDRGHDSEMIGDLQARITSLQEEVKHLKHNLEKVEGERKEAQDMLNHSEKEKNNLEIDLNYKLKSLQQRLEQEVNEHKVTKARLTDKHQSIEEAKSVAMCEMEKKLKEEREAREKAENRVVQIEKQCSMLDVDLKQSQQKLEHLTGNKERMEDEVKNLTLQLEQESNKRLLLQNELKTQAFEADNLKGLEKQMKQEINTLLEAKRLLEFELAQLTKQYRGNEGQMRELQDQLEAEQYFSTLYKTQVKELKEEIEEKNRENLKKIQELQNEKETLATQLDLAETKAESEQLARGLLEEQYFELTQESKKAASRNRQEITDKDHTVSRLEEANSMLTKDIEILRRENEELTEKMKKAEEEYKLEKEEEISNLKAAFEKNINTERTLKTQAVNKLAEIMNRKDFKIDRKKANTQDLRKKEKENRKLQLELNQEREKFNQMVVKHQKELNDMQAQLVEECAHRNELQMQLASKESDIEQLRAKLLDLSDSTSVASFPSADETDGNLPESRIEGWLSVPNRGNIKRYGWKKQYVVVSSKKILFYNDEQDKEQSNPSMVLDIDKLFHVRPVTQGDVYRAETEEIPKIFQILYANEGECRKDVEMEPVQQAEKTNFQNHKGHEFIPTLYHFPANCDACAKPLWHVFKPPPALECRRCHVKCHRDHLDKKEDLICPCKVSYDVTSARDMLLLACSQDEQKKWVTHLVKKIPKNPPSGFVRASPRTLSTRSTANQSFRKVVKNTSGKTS

SMILES	Ratio Ki (Homo sapiens)	Ki [1]	IC50 (Cytochrome P450 3A4)	IC50 (THP-1)	other results
CN1CCN(CCOc2cccc(CC(=O)Nc3nc(-c4c[nH]c5ncc(F)cc45)cs3)c2)CC1	320	3 nM	27 µM	400 nM	
O=C(Cc1cccc(OCCCC2CCNCC2)c1)Nc1nc(-c2c[nH]c3nccc(F)c23)cs1	143	3 nM	100 µM	50 nM	AUC(0-inf) [2]: 250 ng·h/mL; Vd [3]: 19 L/kg; half-life [4]: 330 min; clearance [5]: 68 mL/min/kg; hepatocyte CLint [6]: 5.7 µL/min/1e6 cells; IC50 [7]: > 30 µM
CS(=O)(=O)Nc1cccc(CC(=O)Nc2nc(-c3c[nH]c4ncc(Br)cc34)cs2)c1	32	22 nM	35 µM	10000 nM	
CN1CCN(CCCOc2cccc(CC(=O)Nc3nc(-c4c[nH]c5ncc(F)cc45)cs3)c2)CC1	240	5 nM		260 nM	
O=C(Cc1cccc(OCCCC2CCNCC2)c1)Nc1nc(-c2c[nH]c3ncccc23)cs1				20 nM	AUC(0-inf) [2]: 130 ng·h/mL; Vd [3]: 24 L/kg; half-life [4]: 324 min; clearance [5]: 128 mL/min/kg
O=C(Cc1cccc(OCCCC2CCNCC2)c1)Nc1nc(-c2c[nH]c3ncc(F)cc23)cs1	> 480	1 nM		140 nM	AUC(0-inf) [2]: 250 ng·h/mL; Vd [3]: 8.7 L/kg; half-life [4]: 228 min; hepatocyte CLint [8]: 20.5 µL/min/1e6 cells; clearance [5]: 66 mL/min/kg; hepatocyte CLint [6]: 6.3 µL/min/1e6 cells; IC50 [7]: > 30 µM
CN1CCN(CCCOc2cccc(CC(=O)Nc3nc(-c4c[nH]c5ncccc45)cs3)c2)CC1					AUC(0-inf) [2]: 150 ng·h/mL; Vd [3]: 10 L/kg; half-life [4]: 42.6 min; hepatocyte CLint [8]: 26.8 µL/min/1e6 cells; clearance [5]: 114 mL/min/kg; hepatocyte CLint [6]: 7.5 µL/min/1e6 cells
CN1CCN(CCCOc2cccc(CC(=O)Nc3nc(-c4c[nH]c5nccc(F)c45)cs3)c2)CC1	180	10 nM		400 nM	
CS(=O)(=O)Nc1cccc(CC(=O)Nc2nc(-c3c[nH]c4ncc(O)cc34)cs2)c1	107	7 nM	5 µM	1300 nM	
CS(=O)(=O)Nc1cccc(CC(=O)Nc2nc(-c3c[nH]c4ncc(F)cc34)cs2)c1	53	3 nM	6 µM	70 nM	hepatocyte CLint [8]: 11.7 µL/min/1e6 cells; hepatocyte CLint [6]: 4.3 µL/min/1e6 cells; IC50 [7]: > 30 µM
CN1CCN(CCOc2cccc(CC(=O)Nc3nc(-c4c[nH]c5ncccc45)cs3)c2)CC1				20 nM	AUC(0-inf) [9]: 600 ng·h/mL; AUC(0-inf) [2]: 240 ng·h/mL; Vd [3]: 14 L/kg; half-life [4]: 192 min; Cmax [10]: 60 ng/mL; hepatocyte CLint [8]: 32 µL/min/1e6 cells; bioavailability [11]: 46%; clearance [5]: 71 mL/min/kg; hepatocyte CLint [6]: 3.3 µL/min/1e6 cells

Further lines, with some results ahead:

Ratio Ki (Homo sapiens)	Ki [1]	IC50 (Cytochrome P450 3A4)	IC50 (THP-1)	SMILES	other results
31	52 nM	5 µM		Cc1sc(NC(=O)Cc2cccc(NS(C)(=O)=O)c2)nc1-c1c[nH]c2ncccc12	
31	4 nM	36 µM	80 nM	CS(=O)(=O)Nc1cccc(CC(=O)Nc2nc(-c3c[nH]c4nccc(F)c34)cs2)c1	
1	100 nM	5 µM		CS(=O)(=O)Nc1cccc(CC(=O)Nc2cc(-c3c[nH]c4ncccc34)cs2)c1	
2	92 nM	8 µM		CS(=O)(=O)Nc1cccc(CC(=O)Nc2nc(-c3c[nH]c4nccc(Cl)c34)cs2)c1	
23	48 nM	48 µM	8000 nM	CS(=O)(=O)Nc1cccc(CC(=O)Nc2nccc(-c3c[nH]c4ncccc34)n2)c1	
39	8 nM	6 µM	340 nM	CS(=O)(=O)Nc1cccc(CC(=O)Nc2ccc(-c3c[nH]c4ncccc34)s2)c1	
			20 nM	CS(=O)(=O)Nc1cccc(CC(=O)Nc2nc(-c3c[nH]c4ncccc34)cs2)c1	AUC [9]: 9.2 µg·h/mL; AUC [2]: 2.4 µg·h/mL; Vd [3]: 0.6 L/kg; half-life [4]: 120 min; Cmax [10]: 900 ng/mL; hepatocyte CLint [8]: 6.7 µL/min/1e6 cells; F ([11]; 3 mg/kg): 38%; clearance [5]: 7 mL/min/kg; hepatocyte CLint [6]: 4 µL/min/1e6 cells
20	7 nM	100 µM	820 nM	CS(=O)(=O)Nc1cccc(CC(=O)Nc2cc(-c3c[nH]c4ncccc34)ncn2)c1	
46	11 nM	8 µM	310 nM	CS(=O)(=O)Nc1cccc(CC(=O)Nc2nc(-c3c[nH]c4ncc(Cl)cc34)cs2)c1	
34	7 nM	100 µM	1520 nM	CS(=O)(=O)Nc1cccc(CC(=O)Nc2nnc(-c3c[nH]c4ncccc34)s2)c1	
31	10 nM	12 µM	370 nM	CS(=O)(=O)Nc1cccc(CC(=O)Nc2csc(-c3c[nH]c4ncccc34)n2)c1	
